What all share (assay type): cell-based
One experiment concerns the target NK1 (Homo sapiens, UniProt P25103). In words: Signal transduction (ST), intracellular Ca++ (FLIPR), NK1 antagonistic activity. Conditions: read-out: pIC50 NK1 (converted). Summed up:
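Antagonist IC50 was fitted by non-linear regression of peak intracellular Ca++ signals measured on FLIPR after agonist challenge. Beforehand, Fluo3-loaded confluent cells received antagonists over a concentration range for 20 min at room temperature in Ca++ Krebs buffer, pH 7.4.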

A further experiment has as its target T1, NK3 (Homo sapiens, UniProt P29371).
T1 sequence (P29371 1-465): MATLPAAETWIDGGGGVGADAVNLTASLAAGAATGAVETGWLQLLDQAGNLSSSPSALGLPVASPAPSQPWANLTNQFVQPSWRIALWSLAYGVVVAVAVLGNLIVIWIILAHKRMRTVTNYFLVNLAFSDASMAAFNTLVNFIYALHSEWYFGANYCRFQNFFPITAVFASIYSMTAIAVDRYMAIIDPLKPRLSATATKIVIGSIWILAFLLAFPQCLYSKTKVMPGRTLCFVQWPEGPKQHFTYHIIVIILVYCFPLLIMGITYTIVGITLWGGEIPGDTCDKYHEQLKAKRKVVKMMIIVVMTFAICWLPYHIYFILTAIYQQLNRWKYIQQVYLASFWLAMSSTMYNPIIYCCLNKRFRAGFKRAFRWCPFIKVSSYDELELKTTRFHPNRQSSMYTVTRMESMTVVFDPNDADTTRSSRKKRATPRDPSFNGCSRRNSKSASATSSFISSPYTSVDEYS
As to the kind of experiment: Signal transduction (ST), intracellular Ca++ (FLIPR), NK3. The conditions noted are these: read-out: pIC50 NK3 (converted).

The next experiment deals with T2, NK2 (Homo sapiens, UniProt P21452).
T2 sequence (P21452 1-398): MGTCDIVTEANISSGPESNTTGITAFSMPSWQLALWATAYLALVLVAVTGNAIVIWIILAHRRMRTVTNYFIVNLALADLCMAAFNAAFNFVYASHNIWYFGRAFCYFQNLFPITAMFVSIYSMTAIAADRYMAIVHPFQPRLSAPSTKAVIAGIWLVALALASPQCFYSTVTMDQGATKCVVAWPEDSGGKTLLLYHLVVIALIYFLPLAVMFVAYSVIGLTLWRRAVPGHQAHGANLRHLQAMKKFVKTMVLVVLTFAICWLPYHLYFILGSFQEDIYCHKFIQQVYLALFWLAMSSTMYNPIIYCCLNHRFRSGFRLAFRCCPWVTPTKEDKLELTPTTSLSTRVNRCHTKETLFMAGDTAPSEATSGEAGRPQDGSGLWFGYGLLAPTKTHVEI
As to the kind of experiment: Signal transduction (ST), intracellular Ca++ (FLIPR), NK2. Conditions: read-out: pIC50 NK2 (converted). The method, then: [The procedure below names another target; the source lists this target under the same test.] This test evaluates in vitro functional NK1 antagonistic activity. For the measurements of intracellular Ca^++ concentrations the cells were grown on 96-well (black wall/transparent bottom) plates from Costar for 2 days until they reached confluence. The cells were loaded with 2 μM Fluo3 in DMEM containing 0.1% BSA and 2.5 mM probenecid for 1 h at 37° C. They were washed 3× with a Krebs buffer (140 mM NaCl, 1 mM MgCl2×6H2O, 5 mM KCl, 10 mM glucose, 5 mM HEPES; 1.25 mM CaCl2; pH 7.4) containing 2.5 mM probenecid and 0.1% BSA (Ca^++-buffer). The cells were preincubated with a concentration range of antagonists for 20 min at RT and Ca^++-signals after addition of the agonists were measured in a Fluorescence Image Plate Reader (FLIPR from Molecular Devices, Crawley, England). The peak of the Ca^++-transient was considered as the relevant signal and the mean values of corresponding wells were analysed as described below.
The sigmoidal dose response curves were analysed by computerised curve-fitting, using the GraphPad Program. […] For antagonist responses the IC50-value was calculated using non-linear regression.
The last columns indicates—without being limited therefore—for which the compounds might be most suitable. Of course, since for some neurokinin receptors no data was determined, it is obvious that these compounds might be attributed to another suitable use.

Chain of NK1 (P25103 whole entry): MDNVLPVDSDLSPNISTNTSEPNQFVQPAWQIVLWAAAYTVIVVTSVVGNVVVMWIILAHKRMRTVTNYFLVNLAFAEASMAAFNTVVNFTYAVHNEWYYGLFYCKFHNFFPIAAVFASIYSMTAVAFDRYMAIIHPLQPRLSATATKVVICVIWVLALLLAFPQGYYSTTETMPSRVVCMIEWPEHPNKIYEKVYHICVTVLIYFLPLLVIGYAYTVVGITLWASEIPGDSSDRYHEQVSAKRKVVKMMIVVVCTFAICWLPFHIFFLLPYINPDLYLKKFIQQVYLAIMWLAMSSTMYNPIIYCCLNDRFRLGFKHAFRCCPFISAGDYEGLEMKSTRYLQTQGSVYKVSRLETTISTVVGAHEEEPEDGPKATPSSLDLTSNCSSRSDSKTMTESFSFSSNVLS

For the molecule `O=C(c1cc(C(F)(F)F)cc(C(F)(F)F)c1)N1CCC(N2CCN(C3CCN(c4ncccn4)C3)CC2)CC1Cc1ccccc1` (stereo not drawn) [Compound 5], the IC50 on NK1 is 31.6 nM; at NK3, 631 nM; on NK2 it was 6310 nM.

As for `O=C(C1CCOC1)N1CCC(N2CCN(C3CCN(C(=O)c4cc(C(F)(F)F)cc(C(F)(F)F)c4)C(Cc4ccc(Cl)c(Cl)c4)C3)CC2)C1` (single isomer, unassigned) [Compound 290], the IC50 was 3.98 nM at NK1, 398 nM on NK3 and 1580 nM at NK2.

As to `COc1cccc(NC(=O)N2CCC(N3CCN(C4CCN(C(=O)c5cc(C(F)(F)F)cc(C(F)(F)F)c5)C(Cc5ccccc5)C4)CC3)C2)c1` (stereo not drawn) [Compound 343], the figures for the IC50 on NK1, on NK3 and at NK2 were 31.6 nM, 7940 nM and 3160 nM, respectively.

As for `COc1ccccc1S(=O)(=O)N1CCC(N2CCN([C@H]3CCN(C(=O)c4cc(C(F)(F)F)cc(C(F)(F)F)c4)[C@H](Cc4ccccc4)C3)CC2)C1` (stereo partly drawn) [Compound 300], the IC50 on NK1 was 10 nM; on NK3, 2000 nM; at NK2 it was 794 nM.

With `O=C(c1cc(C(F)(F)F)cc(C(F)(F)F)c1)N1CC[C@H](N2CCN(C3CCN(S(=O)(=O)c4sccc4CO)C3)CC2)C[C@H]1Cc1ccccc1` (stereo partly drawn) [Compound 308], the results for the IC50 on NK1, at NK3 and at NK2 were 7.94 nM, 251 nM and 200 nM, respectively.

Regarding `O=C(C1CCCCN1C(=O)C1CC1)N1CCC(N2CCN([C@H]3CCN(C(=O)c4cc(C(F)(F)F)cc(C(F)(F)F)c4)[C@H](Cc4ccccc4)C3)CC2)C1` (stereo partly drawn) [Compound 296], the IC50 is 6.31 nM at NK1, 794 nM at NK3 and 1580 nM at NK2.

On to `O=C(C(O)c1ccccc1Cl)N1CCC(N2CCN([C@H]3CCN(C(=O)c4cc(C(F)(F)F)cc(C(F)(F)F)c4)[C@H](Cc4ccccc4)C3)CC2)C1` (stereo partly drawn) [Compound 334], for which the IC50 at NK1 is 31.6 nM; at NK3, 7940 nM; on NK2, 5010 nM.

`Cn1cccc(C(=O)N2CCC(N3CCN(C4CCN(C(=O)c5cc(C(F)(F)F)cc(C(F)(F)F)c5)C(Cc5ccc(F)c(F)c5)C4)CC3)C2)c1=O` (single isomer, unassigned) [Compound 260]: the values for the IC50 at NK1, on NK3 and on NK2 were 15.8 nM, 3980 nM and 398 nM, respectively.

In the case of `Cc1nnsc1C(=O)N1CCC(N2CCN(C3CCN(C(=O)c4cc(C(F)(F)F)cc(C(F)(F)F)c4)C(Cc4ccccc4)C3)CC2)C1` (single isomer, unassigned) [Compound 380], the IC50 on NK1 was 6.31 nM; at NK3, 1580 nM; at NK2, 7940 nM.

For the molecule `O=C(c1ccccc1F)N1CCC(N2CCN([C@H]3CCN(C(=O)c4cc(C(F)(F)F)cc(C(F)(F)F)c4)[C@H](Cc4ccccc4)C3)CC2)C1` (stereo partly drawn) [Compound 16], the results for the IC50 on NK1, at NK3 and at NK2 were 31.6 nM, 2510 nM and 5010 nM, respectively.

As to `O=C(C1CCOC1)N1CCC(N2CCN(C3CCN(C(=O)c4cc(C(F)(F)F)cc(C(F)(F)F)c4)C(Cc4ccc(Cl)c(Cl)c4)C3)CC2)C1` (single isomer, unassigned) [Compound 331], the figures for the IC50 at NK1, on NK3 and at NK2 were 3.16 nM, 251 nM and 2000 nM, respectively.

In the case of `CC(C)(C)OC(=O)N1CCCCC1C(=O)N1CCC(N2CCN(C3CCN(C(=O)c4cc(C(F)(F)F)cc(C(F)(F)F)c4)C(Cc4ccccc4)C3)CC2)C1` (stereo not drawn) [Compound 206], the IC50 on NK1 was 10 nM; on NK3 it was 251 nM; on NK2, 794 nM.

Regarding `O=C(c1ccco1)N1CC[C@H](N2CCN([C@H]3CCN(C(=O)c4cc(C(F)(F)F)cc(C(F)(F)F)c4)[C@H](Cc4ccc(Cl)c(Cl)c4)C3)CC2)C1` [Compound 317], the IC50 at NK1 is 10 nM; at NK3, 631 nM; at NK2, 398 nM.

For `O=C(c1c(Cl)cccc1Cl)N1CC[C@@H](N2CCN([C@H]3CCN(C(=O)c4cc(C(F)(F)F)cc(C(F)(F)F)c4)[C@H](Cc4ccc(Cl)c(Cl)c4)C3)CC2)C1` [Compound 265], the IC50 on NK1 was 20 nM; at NK3 it was 158 nM; on NK2, 1580 nM.

In the case of `Cn1cccc(C(=O)N2CCC(N3CCN(C4CCN(C(=O)c5cc(C(F)(F)F)cc(C(F)(F)F)c5)C(Cc5ccc(F)c(F)c5)C4)CC3)C2)c1=O` (single isomer, unassigned) [Compound 368], the IC50 at NK1 is 10 nM; at NK3 it was 3160 nM; at NK2, 3160 nM.

Turning to `O=C(c1cc(COCc2ccccc2)cs1)N1CCC(N2CCN([C@H]3CCN(C(=O)c4cc(C(F)(F)F)cc(C(F)(F)F)c4)[C@H](Cc4ccccc4)C3)CC2)C1` (stereo partly drawn) [Compound 352], the IC50 at NK1 was 63.1 nM; on NK3, 3160 nM; on NK2 it was 6310 nM.

Take `O=C(C1CCOC1)N1CCC(N2CCN(C3CCN(C(=O)c4cc(C(F)(F)F)cc(C(F)(F)F)c4)C(Cc4ccc(Cl)c(Cl)c4)C3)CC2)C1` (single isomer, unassigned) [Compound 249]: the IC50 at NK1 was 50.1 nM; at NK3, 5010 nM; at NK2 it was 5010 nM.

For the molecule `O=C(c1cc(C(F)(F)F)cc(C(F)(F)F)c1)N1CC[C@H](N2CCN(C3CCN(S(=O)(=O)c4ccccc4COCc4ccccc4)C3)CC2)C[C@H]1Cc1ccccc1` (stereo partly drawn) [Compound 401], the results for the IC50 at NK1, at NK3 and on NK2 were 251 nM, 1260 nM and 3160 nM, respectively.

For the molecule `O=C(c1cc(C(F)(F)F)cc(C(F)(F)F)c1)N1CCC(N2CCN(C3CCN(C(CO)c4ccsc4)C3)CC2)CC1Cc1ccccc1` (stereo not drawn) [Compound 349], the IC50 is 31.6 nM at NK1, 6310 nM on NK3 and 2510 nM at NK2.

For the molecule `O=C(c1cc(C(F)(F)F)cc(C(F)(F)F)c1)N1CC[C@H](N2CCN(C3CCN(S(=O)(=O)c4cccc(O)c4)C3)CC2)C[C@H]1Cc1ccccc1` (stereo partly drawn) [Compound 348], the IC50 was 10 nM at NK1, 2000 nM on NK3 and 316 nM at NK2.

With `CC(C)(C)C(=O)N1CC[C@H](N2CCN([C@H]3CCN(C(=O)c4cc(C(F)(F)F)cc(C(F)(F)F)c4)[C@H](Cc4ccc(Cl)c(Cl)c4)C3)CC2)C1` [Compound 313], the figures for the IC50 on NK1, at NK3 and at NK2 were 3.98 nM, 251 nM and 631 nM, respectively.

On to `CN(C(=O)OC(C)(C)C)C(C)(C)C(=O)N1CCC(N2CCN(C3CCN(C(=O)c4cc(C(F)(F)F)cc(C(F)(F)F)c4)C(Cc4ccccc4)C3)CC2)C1` (stereo not drawn) [Compound 304], for which the IC50 on NK1 was 10 nM; at NK3, 158 nM; at NK2, 1580 nM.

For the molecule `O=C(c1cc(C(F)(F)F)cc(C(F)(F)F)c1)N1CC[C@H](N2CCN(C3CCN(S(=O)(=O)c4ccc(CCO)s4)C3)CC2)C[C@H]1Cc1ccccc1` (stereo partly drawn) [Compound 351], the IC50 on NK1 was 10 nM; on NK3, 1000 nM; on NK2, 251 nM.

Regarding `O=C(c1ccccc1Cl)N1CCC(N2CCN(C3CCN(C(=O)c4cc(C(F)(F)F)cc(C(F)(F)F)c4)C(Cc4ccc(F)c(F)c4)C3)CC2)C1` (stereo not drawn) [Compound 255], the figures for the IC50 on NK1, at NK3 and on NK2 were 15.8 nM, 398 nM and 1260 nM, respectively.

On to `O=C(c1ccsc1)N1CCC(N2CCN(C3CCN(C(=O)c4cc(C(F)(F)F)cc(C(F)(F)F)c4)C(Cc4ccccc4)C3)CC2)C1` (single isomer, unassigned) [Compound 39], for which the IC50 is 15.8 nM on NK1, 398 nM at NK3 and 3160 nM on NK2.

Turning to `O=C(c1ccccc1Cl)N1CC[C@@H](N2CCN([C@H]3CCN(C(=O)c4cc(C(F)(F)F)cc(C(F)(F)F)c4)[C@H](Cc4ccc(Cl)c(Cl)c4)C3)CC2)C1` [Compound 266], the IC50 at NK1 was 7.94 nM; on NK3, 316 nM; on NK2 it was 1000 nM.

The record behind these values is US7795261B2, “Substituted 1-piperidin-4-yl-4-pyrrolidin-3-yl-piperazine derivatives and their use as neurokinin antagonists” (Janssen Pharmaceutica NV, priority 2002, dated 2010).
